Assay results reported in ChEMBL document CHEMBL1201862, “PubChem BioAssay data set” (2004).
Activity calls are given as the source filed them.

Experiments:
Insulin-degrading enzyme [1] = biological target: T1, Insulin-degrading enzyme (Homo sapiens, UniProt P14735); assay: recombinant IDE activation, cell-free – biochemical, fluorescence polarization, counter-screen for IDE activator project, dose response (AID 588681)
T1 sequence (P14735 whole entry): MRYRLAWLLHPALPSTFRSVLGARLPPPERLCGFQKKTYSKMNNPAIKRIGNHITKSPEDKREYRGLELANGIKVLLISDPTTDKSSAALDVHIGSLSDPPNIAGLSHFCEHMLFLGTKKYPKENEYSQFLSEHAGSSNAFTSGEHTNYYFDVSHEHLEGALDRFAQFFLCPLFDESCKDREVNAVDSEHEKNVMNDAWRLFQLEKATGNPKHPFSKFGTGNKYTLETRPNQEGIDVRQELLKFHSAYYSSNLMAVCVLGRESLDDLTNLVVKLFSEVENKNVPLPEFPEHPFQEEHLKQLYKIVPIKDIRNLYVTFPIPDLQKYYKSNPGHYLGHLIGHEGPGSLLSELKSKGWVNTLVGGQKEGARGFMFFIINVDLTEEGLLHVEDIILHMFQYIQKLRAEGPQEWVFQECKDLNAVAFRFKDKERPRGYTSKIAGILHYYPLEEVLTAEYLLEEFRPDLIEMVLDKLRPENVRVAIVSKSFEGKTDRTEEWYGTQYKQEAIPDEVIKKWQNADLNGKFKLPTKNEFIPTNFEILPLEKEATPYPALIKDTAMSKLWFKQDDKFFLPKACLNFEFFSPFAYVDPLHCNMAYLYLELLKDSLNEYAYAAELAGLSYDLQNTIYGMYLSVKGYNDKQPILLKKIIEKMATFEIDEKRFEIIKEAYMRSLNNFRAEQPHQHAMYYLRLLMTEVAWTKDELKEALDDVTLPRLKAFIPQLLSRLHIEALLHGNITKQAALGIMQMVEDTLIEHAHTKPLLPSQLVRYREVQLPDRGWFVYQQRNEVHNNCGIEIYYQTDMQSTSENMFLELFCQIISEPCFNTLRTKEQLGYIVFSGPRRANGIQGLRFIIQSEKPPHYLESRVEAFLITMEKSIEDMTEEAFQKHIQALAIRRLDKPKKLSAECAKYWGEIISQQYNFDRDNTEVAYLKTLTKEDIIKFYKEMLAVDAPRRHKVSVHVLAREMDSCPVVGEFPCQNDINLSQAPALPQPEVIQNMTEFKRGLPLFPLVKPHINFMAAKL

Insulin-degrading enzyme [2] = biological target: T1, Insulin-degrading enzyme; assay: cellular IDE activation of Abeta substrate cleavage – fluorescence polarization, HEK cells, dose response (AID 588439); format: functional, cell-based
HEK293 [3] = assay: membrane integrity loss in HEK cells – cell-based, fluorescence, cytotoxicity control for IDE activator project, dose response (AID 588440); format: functional; conditions: Homo sapiens;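 note: cytotoxicity by LDH release measuring loss of membrane integrity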
HEK293 [4] = assay: optical interference in Abeta FP readout, dose response, artefact control for IDE activator project, biochemical, fluorescence polarization (AID 588442); format: functional, cell-based; conditions: Homo sapiens
Estrogen receptor beta = Estrogen receptor beta (Homo sapiens, UniProt Q92731);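 note: recombinant ER-beta bound to coactivator SRC1 peptide in presence of estradiol agonist; inhibitors block coactivator peptide binding and lower the FRET signal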
Sequence of Estrogen receptor beta (Q92731 whole entry): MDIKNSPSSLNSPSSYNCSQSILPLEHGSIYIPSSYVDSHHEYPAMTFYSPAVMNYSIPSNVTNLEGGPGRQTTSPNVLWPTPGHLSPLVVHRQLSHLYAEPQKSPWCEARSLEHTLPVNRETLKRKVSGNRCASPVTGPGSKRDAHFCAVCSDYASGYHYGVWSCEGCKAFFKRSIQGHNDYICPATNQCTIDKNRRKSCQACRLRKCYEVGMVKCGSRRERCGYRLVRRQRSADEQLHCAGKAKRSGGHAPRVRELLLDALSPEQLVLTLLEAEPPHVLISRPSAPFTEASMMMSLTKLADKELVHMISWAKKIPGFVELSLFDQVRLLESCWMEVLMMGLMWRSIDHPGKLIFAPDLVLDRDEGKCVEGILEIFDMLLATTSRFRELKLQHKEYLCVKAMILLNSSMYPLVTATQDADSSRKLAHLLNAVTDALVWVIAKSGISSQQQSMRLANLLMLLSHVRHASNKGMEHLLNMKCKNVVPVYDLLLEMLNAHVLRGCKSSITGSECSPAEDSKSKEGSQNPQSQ

[5] = biological target: T2, Heat shock factor protein 1 (Mus musculus, UniProt P38532); assay: enhancement of HSF1-driven luciferase signal – cell-based, NIH3T3, luminescence, dose retest, confirmation (AID 435004); format: functional;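 note: stress induced by proteasome inhibitor MG132 added 30 min after compound; luciferase reporter driven by HSF1 response element in NIH3T3 cells; actives raise luminescence as potentiators of the MG132 stress response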
T2 sequence (P38532 whole entry): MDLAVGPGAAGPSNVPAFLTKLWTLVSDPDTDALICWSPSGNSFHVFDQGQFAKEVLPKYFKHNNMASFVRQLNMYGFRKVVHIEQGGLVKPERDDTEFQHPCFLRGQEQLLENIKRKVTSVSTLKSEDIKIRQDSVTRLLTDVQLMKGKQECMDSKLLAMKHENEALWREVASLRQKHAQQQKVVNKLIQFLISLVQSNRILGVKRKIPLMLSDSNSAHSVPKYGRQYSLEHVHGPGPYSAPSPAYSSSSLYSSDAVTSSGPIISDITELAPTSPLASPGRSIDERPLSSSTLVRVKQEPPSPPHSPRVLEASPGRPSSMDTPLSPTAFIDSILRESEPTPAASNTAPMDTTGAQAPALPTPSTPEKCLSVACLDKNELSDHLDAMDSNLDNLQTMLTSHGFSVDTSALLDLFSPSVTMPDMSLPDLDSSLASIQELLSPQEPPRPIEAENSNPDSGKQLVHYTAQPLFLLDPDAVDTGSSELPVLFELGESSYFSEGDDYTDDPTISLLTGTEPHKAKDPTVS

INS1 = assay: INS-1E survival protection against cytokine death – cell-based, luminescence, retest, dose response (AID 449756); format: functional; conditions: Rattus norvegicus;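 note: cell death triggered by IL-1 beta plus TNF-alpha plus IFN-gamma mixture; protective hits raise ATP signal compared with cytokine alone wells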
[6] = biological target: T3, Hepatocyte nuclear factor 4-alpha (Homo sapiens, UniProt P41235); format: functional, cell-based;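 note: biochemical luminescence-based dose-response counterscreen measuring inhibition of HNF4 dimerization, run alongside a screen for blockers of ABHD5–perilipin-5 interaction; split luciferase complementation of HNF4 fusion proteins in cell lysate measuring dimerization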
T3 sequence (P41235 whole entry): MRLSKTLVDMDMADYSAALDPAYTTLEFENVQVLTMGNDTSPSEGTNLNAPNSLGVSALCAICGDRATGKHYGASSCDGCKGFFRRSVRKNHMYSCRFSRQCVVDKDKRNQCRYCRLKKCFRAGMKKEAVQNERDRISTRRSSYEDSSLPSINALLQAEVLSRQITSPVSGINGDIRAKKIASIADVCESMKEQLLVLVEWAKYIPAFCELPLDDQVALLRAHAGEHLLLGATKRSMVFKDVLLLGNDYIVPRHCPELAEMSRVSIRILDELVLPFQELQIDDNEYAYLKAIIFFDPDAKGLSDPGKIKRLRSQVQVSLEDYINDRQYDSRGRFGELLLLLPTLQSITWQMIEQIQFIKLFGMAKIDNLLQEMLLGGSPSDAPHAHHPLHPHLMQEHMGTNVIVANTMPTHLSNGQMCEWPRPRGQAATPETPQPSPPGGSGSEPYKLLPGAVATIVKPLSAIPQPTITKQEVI

[7] = reduction of Shn3 3'UTR-driven luciferase in osteoblasts – cell-based, Clone20 osteoblasts, firefly luciferase, cherry-picked, dose response (AID 624132); format: functional;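 note: firefly luciferase luminescence from reporter carrying the Shn3 3'UTR in osteoblasts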
[8] = loss of viability in HepG2 cells – cell-based, CellTiter-Glo, cherry-picked, cytotoxicity control for Shn3 inhibitor project, dose response (AID 624134); format: functional
[9] = non-specific 3'UTR reporter inhibition in Clone20-Shn3RL – cell-based, Renilla luciferase, cherry-picked, counter-screen for Shn3 inhibitor project, dose response (AID 624133); format: functional
Melanocortin receptor 4 = Melanocortin receptor 4 (Homo sapiens, UniProt P32245); format: functional, cell-based;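 note: Cell-based assay with luminescence read-out, confirmatory dose-response testing for agonist activity of biased ligands at MC4R; human U2OS cells with tagged receptor and beta-arrestin; potency of agonists that increase receptor coupling to beta-arrestin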
Sequence of Melanocortin receptor 4 (P32245 whole entry): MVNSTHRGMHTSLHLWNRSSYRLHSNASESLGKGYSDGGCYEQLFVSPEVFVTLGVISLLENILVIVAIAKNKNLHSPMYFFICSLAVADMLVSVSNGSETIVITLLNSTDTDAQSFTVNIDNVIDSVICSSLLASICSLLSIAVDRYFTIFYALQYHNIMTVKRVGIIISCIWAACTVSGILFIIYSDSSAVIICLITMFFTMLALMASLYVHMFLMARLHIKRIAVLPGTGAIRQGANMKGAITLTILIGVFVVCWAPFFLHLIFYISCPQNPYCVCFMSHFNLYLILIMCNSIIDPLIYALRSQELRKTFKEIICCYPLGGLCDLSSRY

[10] = P. falciparum Dd2 growth inhibitors, dose response, SYBR Green, cherry-picked samples (AID 1159567); format: functional, cell-based
[11] = toxicity to human hepatoma HepG2 cells – cell-based, cherry-picked samples, cytotoxicity control, dose response (AID 1159577); format: functional

| Structure (SMILES) | EC50 (Insulin-degrading enzyme [1]) | EC50 (Insulin-degrading enzyme [2]) | IC50 (HEK293 [3]) | EC50 (HEK293 [4]) | other results |
| --- | --- | --- | --- | --- | --- |
| COc1ccc(/C=C2\Oc3cc(OCC(=O)N4CCC(C(=O)O)CC4)ccc3C2=O)c(OC)c1OC | 33 µM (inactive) | 22 µM (inactive) | > 89.2 µM (inactive) | 24 µM (inactive) | – |
| COc1ccccc1NC(=O)NC(N)=O | – | – | – | – | IC50 (Estrogen receptor beta): > 50 µM (not active) |
| CC(=O)Oc1c(Cl)cc(N(C(C)=O)S(=O)(=O)c2ccccc2)c2ccccc12 | – | – | – | – | EC50 [5]: > 260 µM (inactive); AC50 (INS1): 4.34 µM (active); IC50 [6]: 10.1 µM (inactive) |
| O=C(NS(=O)(=O)Nc1ccccc1)C1=C(N2CCCC2)COC1=O | > 54.7 µM (inactive) | > 54.7 µM (inactive) | > 89.2 µM (inactive) | > 55.9 µM (inactive) | – |
| CC1CN(S(=O)(=O)c2ccc(C(=O)Nc3nncs3)cc2)CC(C)O1 (configuration not stated) | > 54.7 µM (inactive) | > 54.7 µM (inactive) | > 89.2 µM (inactive) | > 54.7 µM (inactive) | – |
| OC[C@@H]1CN(Cc2ccncc2)C[C@H](n2cnc3c(N4CCN(c5ccccc5)CC4)ncnc32)O1 | – | – | – | – | AC50 [7]: 2.38 µM (active); AC50 [8]: 3.81 µM (active); AC50 [9]: 5.72 µM (active) |
| CCOC(=O)C(/C=N/c1ccc2c(c1)nnn2-c1ccc(Cl)cc1)=C(\O)OCC | – | – | – | – | EC50 (Melanocortin receptor 4): > 89.2 µM (inactive) |
| Cc1cccc(-c2ccc([C@@H]3[C@H](CO)N4CCCCN(S(=O)(=O)c5cccc(C)c5)C[C@@H]34)cc2)c1 | – | – | – | – | AC50 [10]: 0.864 µM (active); AC50 [11]: 8.89 µM (active) |
